Data on eleven molecules can be found in ChEMBL document CHEMBL1201862, “PubChem BioAssay data set” (2004).

Each structure is given as a SMILES string.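 Each compound was tested at five concentrations against cells in 96-well plates for 48 hours. GI50 is the concentration that inhibits growth by half.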 Active and inactive are the calls of the source. No stated cut-off is given here; in the data, active = GI50 up to about 1.1 µM and inactive = higher.

Some test systems named below: UACC-62; HCC 2998; COLO 205; OVCAR-5; SNB-75; CCRF-CEM; SR; OVCAR-4; M14; TK-10; HT-29; SW-620; HOP-62; IGROV-1; OVCAR-3; MDA-MB-231; OVCAR-8; NCI-H460; SK-MEL-28; MOLT-4.
Assay in all cases: NCI-60 cell line screen, 48 h

Turning to `COc1cccc2c1OC(c1ccc(C#N)cc1)C([N+](=O)[O-])=C2` (configuration not stated), the GI50 in the test with UACC-62 is 1.6 µM (inactive); with HCC 2998, 1.76 µM (inactive); with COLO 205, 1.74 µM (inactive); in the test with OVCAR-5, 1.95 µM (inactive); with SNB-75, 2.47 µM (inactive); with CCRF-CEM it was 1.58 µM (inactive). For the same molecule, the GI50 in the test on SR is 0.778 µM (active); in the test on OVCAR-4, 1.68 µM (inactive); in the test with M14, 1.78 µM (inactive); in the test with TK-10, 3.11 µM (inactive); in the test with HT-29 it was 1.72 µM (inactive); with SW-620, 1.42 µM (inactive). Besides, the GI50 in the test on HOP-62 was 3.21 µM (inactive); with IGROV-1, 1.92 µM (inactive); in the test with OVCAR-3, 2.02 µM (inactive); in the test with MDA-MB-231, 1.56 µM (inactive); in the test on OVCAR-8, 1.25 µM (inactive); in the test with NCI-H460, 2.22 µM (inactive). In addition, in the test on SK-MEL-28, the GI50 is 2.28 µM (inactive).

With `O=C(O)CC12CC3CC(CC(O)(C3)C1)C2`, the GI50 in the test on UACC-62, in the test with HCC 2998, in the test with COLO 205, in the test on OVCAR-5, in the test with SNB-75 and in the test on SR was > 100 µM (inactive) each time. Further, the GI50 in the test with OVCAR-4, in the test on M14, with TK-10, with HT-29, in the test on SW-620 and with HOP-62 was > 100 µM (inactive) each time. Moreover, the GI50 in the test with IGROV-1 is > 100 µM (inactive); in the test on OVCAR-3, 3.14 µM (inactive); in the test on MDA-MB-231, > 100 µM (inactive); in the test with OVCAR-8, > 100 µM (inactive); with NCI-H460, > 100 µM (inactive); in the test on SK-MEL-28, > 100 µM (inactive).

As for `CC1(C)CNC(=O)C2(CCCO2)CNC(C)(C)CNC(=O)C2(CCCO2)CN1` (configuration not stated), the GI50 in the test on UACC-62, in the test with HCC 2998, in the test on COLO 205, with OVCAR-5, in the test with MOLT-4 and in the test with SNB-75 was > 10 µM (inactive) throughout. In addition, the GI50 in the test on CCRF-CEM, in the test with SR, in the test on OVCAR-4, in the test on M14, in the test with TK-10 and in the test on HT-29 was > 10 µM (inactive) throughout. For the same molecule, the GI50 with SW-620, with HOP-62, in the test on IGROV-1, in the test on OVCAR-3, in the test on MDA-MB-231 and with OVCAR-8 was > 10 µM (inactive) each time. Also, the GI50 in the test with SK-MEL-28 was > 10 µM (inactive).

Consider `CC(=O)OCc1cn(S(=O)(=O)c2ccc(C)cc2)cn1`, for which the GI50 is 75.2 µM (inactive) in the test with UACC-62; > 100 µM (inactive) in the test on HCC 2998; 73.6 µM (inactive) in the test on COLO 205; 46.5 µM (inactive) in the test with MOLT-4; > 100 µM (inactive) with SNB-75; 26.7 µM (inactive) in the test on CCRF-CEM. Further, the GI50 with SR was 9.51 µM (inactive); with OVCAR-4, > 100 µM (inactive); in the test with M14 it was 25.3 µM (inactive); in the test on TK-10, > 100 µM (inactive); in the test with HT-29, 20.7 µM (inactive); in the test on SW-620, 43 µM (inactive). Further, the GI50 was > 100 µM (inactive) with HOP-62; > 100 µM (inactive) in the test with IGROV-1; 24.2 µM (inactive) in the test with OVCAR-3; > 100 µM (inactive) in the test with MDA-MB-231; > 100 µM (inactive) in the test on OVCAR-8; 30.1 µM (inactive) in the test with NCI-H460. Further, the GI50 in the test on SK-MEL-28 is > 100 µM (inactive).

For the molecule `O=C1C(=Cc2ccccc2O)N=C(c2ccccc2)N1n1c(-c2ccccc2)nc2ccccc2c1=O`, the GI50 is 33.7 µM (inactive) in the test with UACC-62; 30.7 µM (inactive) in the test with HCC 2998; 35.7 µM (inactive) in the test on COLO 205; 26.7 µM (inactive) in the test with MOLT-4; 23.4 µM (inactive) in the test on SNB-75; 28.4 µM (inactive) with CCRF-CEM. The GI50 is 32.9 µM (inactive) with SR; 19.3 µM (inactive) in the test on M14; 50.2 µM (inactive) in the test on TK-10; 37.2 µM (inactive) with HT-29; 45.8 µM (inactive) with SW-620; 31.3 µM (inactive) with HOP-62. The GI50 was 34.4 µM (inactive) in the test with IGROV-1; 42.2 µM (inactive) in the test on MDA-MB-231; 31.3 µM (inactive) in the test on OVCAR-8; 29.8 µM (inactive) in the test on NCI-H460; 33.8 µM (inactive) in the test with SK-MEL-28.

For the molecule `C=CCNC1=C2C[C@@H](C)C[C@@H](OC)[C@H](OC(=O)CCN)[C@H](C)/C=C(\C)[C@@H](OC(N)=O)[C@H](OC)/C=C\C=C(/C)C(=O)NC(=CC1=O)C2=O`, the GI50 was 2.9 µM (inactive) in the test on UACC-62; 1.06 µM (active) in the test on HCC 2998; 0.718 µM (active) in the test on COLO 205; 10.8 µM (inactive) in the test with OVCAR-5; 3.86 µM (inactive) in the test on MOLT-4; 3.18 µM (inactive) with SNB-75. Also, the GI50 was 0.938 µM (active) with SR; 8.93 µM (inactive) with OVCAR-4; 3.71 µM (inactive) in the test with M14; 2.17 µM (inactive) with TK-10; 0.409 µM (active) in the test on HT-29; 3.6 µM (inactive) with SW-620. In addition, the GI50 was 3.53 µM (inactive) in the test on HOP-62; 4.74 µM (inactive) in the test on IGROV-1; 2.45 µM (inactive) in the test with OVCAR-3; 5.19 µM (inactive) in the test on MDA-MB-231; 4.18 µM (inactive) in the test with OVCAR-8; 2.77 µM (inactive) with NCI-H460. In addition, the GI50 in the test with SK-MEL-28 is 14.5 µM (inactive).

Consider `CC(=O)OCC1OC(c2nnc(C)o2)=CC(OC(C)=O)C1OC(C)=O` (configuration not stated), for which the GI50 with COLO 205, in the test on OVCAR-5, in the test on MOLT-4, with SNB-75, in the test on CCRF-CEM and in the test on SR was > 100 µM (inactive) each time. The GI50 in the test with OVCAR-4, in the test on TK-10, in the test with HT-29, in the test with SW-620, with HOP-62 and with IGROV-1 was > 100 µM (inactive) each time. The GI50 with OVCAR-3, with MDA-MB-231, in the test with OVCAR-8, in the test on NCI-H460 and with SK-MEL-28 was > 100 µM (inactive) in each case.

Consider `O=C1CC2c3ccccc3CCC2c2ccccc21` (configuration not stated), for which the GI50 was 20 µM (inactive) in the test on UACC-62; 21.5 µM (inactive) in the test on HCC 2998; 2.93 µM (inactive) with COLO 205; 24.4 µM (inactive) in the test with OVCAR-5; 32.3 µM (inactive) with MOLT-4; 38.2 µM (inactive) with SNB-75. Besides, the GI50 in the test with SR is 46.7 µM (inactive); in the test on OVCAR-4, > 10 µM (inactive); in the test with M14 it was 15.7 µM (inactive); with TK-10, 35.2 µM (inactive); in the test on HT-29, 13.3 µM (inactive); with SW-620 it was 26.5 µM (inactive). Also, the GI50 in the test on HOP-62 was 25.9 µM (inactive); in the test with IGROV-1, 26.3 µM (inactive); with OVCAR-3, 13.3 µM (inactive); with MDA-MB-231, 20.5 µM (inactive); in the test on OVCAR-8, 21.2 µM (inactive); in the test with NCI-H460, 22.3 µM (inactive). For the same molecule, in the test on SK-MEL-28, the GI50 was 36.1 µM (inactive).

With `CC1=NC(=Cc2ccc(Cl)cc2)C(=O)N1n1c(-c2ccccc2)nc2ccccc2c1=O`, the GI50 in the test with UACC-62 is 33.2 µM (inactive); with HCC 2998 it was 38.8 µM (inactive); in the test with COLO 205, 32.4 µM (inactive); in the test with MOLT-4, 34.5 µM (inactive); with SNB-75 it was 38.6 µM (inactive); in the test on CCRF-CEM, 37.8 µM (inactive). The GI50 is 33.5 µM (inactive) in the test on SR; 39.4 µM (inactive) in the test on M14; 51.6 µM (inactive) in the test on TK-10; 37 µM (inactive) in the test with HT-29; 57.1 µM (inactive) in the test on SW-620; 47.2 µM (inactive) in the test with HOP-62. In addition, the GI50 is 31.6 µM (inactive) with IGROV-1; 49.7 µM (inactive) in the test on MDA-MB-231; 39.4 µM (inactive) in the test on OVCAR-8; 23 µM (inactive) in the test on NCI-H460; 51.4 µM (inactive) with SK-MEL-28.

On to `CC(C)(C)N/C(N)=N/C#N`, for which the GI50 in the test with UACC-62, in the test with HCC 2998, in the test with COLO 205, with OVCAR-5, in the test on MOLT-4 and in the test with SNB-75 was > 100 µM (inactive) in each case. In addition, the GI50 with CCRF-CEM, in the test with SR, in the test on OVCAR-4, in the test with M14, in the test on TK-10 and with HT-29 was > 100 µM (inactive) each time. Further, the GI50 with SW-620, in the test on HOP-62, in the test with IGROV-1, with MDA-MB-231, with OVCAR-8 and with NCI-H460 was > 100 µM (inactive) throughout. For the same molecule, in the test with SK-MEL-28, the GI50 was > 100 µM (inactive).

For `CC(C)(C)OC(=O)n1c2ccccc2c2c(=O)nc(N3CCCCC3)sc21`, the GI50 in the test on UACC-62, with COLO 205, in the test with OVCAR-5, with MOLT-4, in the test on SNB-75 and in the test on CCRF-CEM was > 100 µM (inactive) throughout. The GI50 was 90.4 µM (inactive) in the test with SR; > 100 µM (inactive) in the test on OVCAR-4; > 100 µM (inactive) with M14; > 100 µM (inactive) in the test with TK-10; > 100 µM (inactive) in the test with HT-29; > 100 µM (inactive) in the test on SW-620. Moreover, the GI50 with HOP-62 is > 100 µM (inactive); with IGROV-1 it was > 100 µM (inactive); with OVCAR-3, > 100 µM (inactive); in the test with MDA-MB-231, > 100 µM (inactive); in the test on OVCAR-8, > 100 µM (inactive); in the test on NCI-H460 it was 65.2 µM (inactive). The GI50 in the test on SK-MEL-28 was > 100 µM (inactive).
